Measured values: patent US6872749B2, “Method for supplying bioavailable methionine to a cow” (Adisseo Ireland Limited, priority 1998, dated 2005)

assay: Bioavailability of esters of methionine after spot dose to cows (Example 2); assay type: in vivo, cow; details: bovine, in vivo, 0 h
Protocol: The bioavailability of the esters was evaluated.
The samples were stored in a freezer.
The procedure of (b1) was repeated using 72 g of methionine ethyl ester hydrochloride, prepared as detailed above
• cyclohexyl methioninate: 122 g • methionine methyl ester hydrochloride: 73 g • sec butyl methioninate: 72 g

[met] methionine concentration in blood plasma | SMILES
0.29 mg/100 g of blood plasma | CSCC[C@H](N)C(=O)OC1CCCCC1 [Cyclohexyl methioninate, cyclohexyl methioninate]
0.31 mg/100 g of blood plasma | CCCCCCOC(=O)[C@@H](N)CCSC [n-hexyl methioninate]
0.37 mg/100 g of blood plasma | CCCCCCCCCCCCCCCCCCOC(=O)[C@@H](N)CCSC [n-octadecyl methioninate]
0.35 mg/100 g of blood plasma | CCC(C)OC(=O)[C@@H](N)CCSC (stereo partly shown) [sec butyl methioninate]
0.32 mg/100 g of blood plasma | CCCCOC(=O)[C@@H](N)CCSC [n-butyl methioninate]
0.33 mg/100 g of blood plasma | CCCCCCCCCCCCOC(=O)[C@@H](N)CCSC [Dodecyl methioninate, dodecyl methioninate]
0.32 mg/100 g of blood plasma | CCCOC(=O)[C@@H](N)CCSC [n-propyl methioninate]
0.34 mg/100 g of blood plasma | COC(=O)[C@@H](N)CCSC [Methyl methioninate, methyl methioninate]

same assay, conditions: bovine, in vivo, 1 h

[met] methionine concentration in blood plasma | SMILES
2.55 mg/100 g of blood plasma | CSCC[C@H](N)C(=O)OC1CCCCC1 [Cyclohexyl methioninate, cyclohexyl methioninate]
1.22 mg/100 g of blood plasma | CCCCCCOC(=O)[C@@H](N)CCSC [n-hexyl methioninate]
0.37 mg/100 g of blood plasma | CCCCCCCCCCCCCCCCCCOC(=O)[C@@H](N)CCSC [n-octadecyl methioninate]
2.75 mg/100 g of blood plasma | CCC(C)OC(=O)[C@@H](N)CCSC (stereo partly shown) [sec butyl methioninate]
1.10 mg/100 g of blood plasma | CCCCOC(=O)[C@@H](N)CCSC [n-butyl methioninate]
0.38 mg/100 g of blood plasma | CCCCCCCCCCCCOC(=O)[C@@H](N)CCSC [Dodecyl methioninate, dodecyl methioninate]
2.29 mg/100 g of blood plasma | CCCOC(=O)[C@@H](N)CCSC [n-propyl methioninate]
4.08 mg/100 g of blood plasma | COC(=O)[C@@H](N)CCSC [Methyl methioninate, methyl methioninate]

same assay, conditions: bovine, in vivo, 2 h

[met] methionine concentration in blood plasma | SMILES
2.27 mg/100 g of blood plasma | CSCC[C@H](N)C(=O)OC1CCCCC1 [Cyclohexyl methioninate, cyclohexyl methioninate]
0.92 mg/100 g of blood plasma | CCCCCCOC(=O)[C@@H](N)CCSC [n-hexyl methioninate]
0.37 mg/100 g of blood plasma | CCCCCCCCCCCCCCCCCCOC(=O)[C@@H](N)CCSC [n-octadecyl methioninate]
2.49 mg/100 g of blood plasma | CCC(C)OC(=O)[C@@H](N)CCSC (stereo partly shown) [sec butyl methioninate]
0.74 mg/100 g of blood plasma | CCCCOC(=O)[C@@H](N)CCSC [n-butyl methioninate]
0.37 mg/100 g of blood plasma | CCCCCCCCCCCCOC(=O)[C@@H](N)CCSC [Dodecyl methioninate, dodecyl methioninate]
1.70 mg/100 g of blood plasma | CCCOC(=O)[C@@H](N)CCSC [n-propyl methioninate]
3.87 mg/100 g of blood plasma | COC(=O)[C@@H](N)CCSC [Methyl methioninate, methyl methioninate]

same assay, conditions: bovine, in vivo, 3 h

[met] methionine concentration in blood plasma | SMILES
1.88 mg/100 g of blood plasma | CSCC[C@H](N)C(=O)OC1CCCCC1 [Cyclohexyl methioninate, cyclohexyl methioninate]
0.94 mg/100 g of blood plasma | CCCCCCOC(=O)[C@@H](N)CCSC [n-hexyl methioninate]
0.34 mg/100 g of blood plasma | CCCCCCCCCCCCCCCCCCOC(=O)[C@@H](N)CCSC [n-octadecyl methioninate]
2.39 mg/100 g of blood plasma | CCC(C)OC(=O)[C@@H](N)CCSC (stereo partly shown) [sec butyl methioninate]
0.63 mg/100 g of blood plasma | CCCCOC(=O)[C@@H](N)CCSC [n-butyl methioninate]
0.37 mg/100 g of blood plasma | CCCCCCCCCCCCOC(=O)[C@@H](N)CCSC [Dodecyl methioninate, dodecyl methioninate]
1.55 mg/100 g of blood plasma | CCCOC(=O)[C@@H](N)CCSC [n-propyl methioninate]
3.25 mg/100 g of blood plasma | COC(=O)[C@@H](N)CCSC [Methyl methioninate, methyl methioninate]

same assay, conditions: bovine, in vivo, 5 h

[met] methionine concentration in blood plasma | SMILES
1.61 mg/100 g of blood plasma | CSCC[C@H](N)C(=O)OC1CCCCC1 [Cyclohexyl methioninate, cyclohexyl methioninate]
1.06 mg/100 g of blood plasma | CCCCCCOC(=O)[C@@H](N)CCSC [n-hexyl methioninate]
0.37 mg/100 g of blood plasma | CCCCCCCCCCCCCCCCCCOC(=O)[C@@H](N)CCSC [n-octadecyl methioninate]
1.75 mg/100 g of blood plasma | CCC(C)OC(=O)[C@@H](N)CCSC (stereo partly shown) [sec butyl methioninate]
0.62 mg/100 g of blood plasma | CCCCOC(=O)[C@@H](N)CCSC [n-butyl methioninate]
0.44 mg/100 g of blood plasma | CCCCCCCCCCCCOC(=O)[C@@H](N)CCSC [Dodecyl methioninate, dodecyl methioninate]
1.27 mg/100 g of blood plasma | CCCOC(=O)[C@@H](N)CCSC [n-propyl methioninate]
2.57 mg/100 g of blood plasma | COC(=O)[C@@H](N)CCSC [Methyl methioninate, methyl methioninate]

same assay, conditions: bovine, in vivo, 7 h

[met] methionine concentration in blood plasma | SMILES
1.55 mg/100 g of blood plasma | CSCC[C@H](N)C(=O)OC1CCCCC1 [Cyclohexyl methioninate, cyclohexyl methioninate]
1.07 mg/100 g of blood plasma | CCCCCCOC(=O)[C@@H](N)CCSC [n-hexyl methioninate]
0.31 mg/100 g of blood plasma | CCCCCCCCCCCCCCCCCCOC(=O)[C@@H](N)CCSC [n-octadecyl methioninate]
1.56 mg/100 g of blood plasma | CCC(C)OC(=O)[C@@H](N)CCSC (stereo partly shown) [sec butyl methioninate]
0.61 mg/100 g of blood plasma | CCCCOC(=O)[C@@H](N)CCSC [n-butyl methioninate]
0.45 mg/100 g of blood plasma | CCCCCCCCCCCCOC(=O)[C@@H](N)CCSC [Dodecyl methioninate, dodecyl methioninate]
1.14 mg/100 g of blood plasma | CCCOC(=O)[C@@H](N)CCSC [n-propyl methioninate]
2.51 mg/100 g of blood plasma | COC(=O)[C@@H](N)CCSC [Methyl methioninate, methyl methioninate]

same assay, conditions: bovine, in vivo, 28 h

[met] methionine concentration in blood plasma | SMILES
0.38 mg/100 g of blood plasma | CSCC[C@H](N)C(=O)OC1CCCCC1 [Cyclohexyl methioninate, cyclohexyl methioninate]
0.35 mg/100 g of blood plasma | CCCCCCOC(=O)[C@@H](N)CCSC [n-hexyl methioninate]
0.38 mg/100 g of blood plasma | CCCCCCCCCCCCCCCCCCOC(=O)[C@@H](N)CCSC [n-octadecyl methioninate]
0.44 mg/100 g of blood plasma | CCC(C)OC(=O)[C@@H](N)CCSC (stereo partly shown) [sec butyl methioninate]
0.27 mg/100 g of blood plasma | CCCCOC(=O)[C@@H](N)CCSC [n-butyl methioninate]
0.28 mg/100 g of blood plasma | CCCCCCCCCCCCOC(=O)[C@@H](N)CCSC [Dodecyl methioninate, dodecyl methioninate]
0.32 mg/100 g of blood plasma | CCCOC(=O)[C@@H](N)CCSC [n-propyl methioninate]
0.41 mg/100 g of blood plasma | COC(=O)[C@@H](N)CCSC [Methyl methioninate, methyl methioninate]

same assay, conditions: bovine, in vivo, po

Bioavailability % [%] | SMILES
35 | CSCC[C@H](N)C(=O)OC1CCCCC1 [Cyclohexyl methioninate, cyclohexyl methioninate]
17 | CCCCCCOC(=O)[C@@H](N)CCSC [n-hexyl methioninate]
1 | CCCCCCCCCCCCCCCCCCOC(=O)[C@@H](N)CCSC [n-octadecyl methioninate]
28 | CCC(C)OC(=O)[C@@H](N)CCSC (stereo partly shown) [sec butyl methioninate]
8 | CCCCOC(=O)[C@@H](N)CCSC [n-butyl methioninate]
3 | CCCCCCCCCCCCOC(=O)[C@@H](N)CCSC [Dodecyl methioninate, dodecyl methioninate]
22 | CCCOC(=O)[C@@H](N)CCSC [n-propyl methioninate]
51 | COC(=O)[C@@H](N)CCSC [Methyl methioninate, methyl methioninate]
